In patent US20120003270A1, “6-SUBSTITUTED ISOFLAVONOID COMPOUNDS AND USES THEREOF” (priority 2008, published 2012):
Marks after values point to notes of the source that are not given here.

What was measured:
5-lipoxygenase (5-LO) = test: Synthesis of LTB4 and its metabolites in calcium ionophore-stimulated neutrophils (HPLC); assay type: cell-based, human; conditions: for IC50: Neutrophil, human neutrophils, calcium ionophore, read-out: IC50 for the production of LTB4
Protocol: The pathway for LTB4 synthesis involves initial release of AA from phospholipids by a Ca-dependent PLA2. The free AA is then oxygenated at by 5-LO (requiring enzyme activation by FLAP) to generate an epoxide intermediate (LTA4). LTA4 is then converted to LTB4 by LTA4 hydrolase. LTB4 is metabolised (and deactivated) by a cytochrome P-(CYP) 450 […] to produce 20-hydroxy and 20-carboxy metabolites. These metabolites are also measured in the HPLC assay.
Neutrophils were isolated from citrated human venous blood to >90% purity by centrifugation through Ficoll, dextran sedimentation and lysis of erythrocytes (Boyum 1986). Cells were washed in HEPES buffered Hanks solution (HBHS) and then suspended at 4.5 million cells/mL in HBHS containing 0.1% BSA (HBHS+BSA).
Experiments had been carried out previously to optimise the stimulation of neutrophils by calcium ionophore. At 37° C., 900 μL of cell suspension (4 million cells) was incubated with 3′,7-dihydroxyisoflav-3-ene (or vehicle) in 10 μL DMSO for 5 min before addition of 100 μL of 25 ng/μL calcium ionophore (free acid form, Sigma) with 0.5% DMSO in HBHS containing 0.1% bovine serum albumin (HBHS+BSA). The cells were incubated for 10 min then pelleted by centrifugation at 1200× g at 4° C. for 5 min, and the cell free supernatant used to quantitate the levels of LTB4 and its metabolites.
To each 900 μL aliquot of the supernatant, 25 μL of 2.5 ng/μL prostaglandin B2 (PGB2) in ethanol was added as internal standard. The solution was acidified to […] with 2M formic acid and the mixture extracted with 2 mL ethyl acetate and vigorous vortexing. The organic layer was collected and dried under nitrogen in a glass vial before being reconstituted in 50 μL of the reconstitution solution (water:methanol:acetonitrile at 2:1:1).
Analysis was carried out using a HPLC system with a 125-4 LiChrospher®100 RP-18 (5 μm) column (Agilent Technologies) and a gradient system adapted from a published method (Mita et al. 1988) to separate LTB4, its oxidation products 20-hydroxy LTB4 (20-OH-LTB4) and 20-carboxy LTB4 (20-COOH-LTB4), as well as PGB2. At 1 ml/min flow rate, a combination of three different mobile phase solutions were used. UV absorbance was monitored at 270 nm, and LTB4 and its metabolites were quantitated by comparison of peak areas with that of internal standard and a standard curve prepared earlier.

HCAECs = test: HCAEC cell viability; assay type: cell-based, human; conditions: 10 μM, 24 hr incubation
[1] = tested on: serum-treated zymozan air pouch inflammation; test: Rat air pouch assay; assay type: in vivo; conditions: for Cells in lavage fluid (×10^−7): intrapouch, mean ± SD; for Cells in lavage fluid (×10^−7) / PMN in tissue sections (per 100 squares): 4 h after STZ; for PMN in tissue sections (per 100 squares): pouch wall
Protocol: Air pouches were raised on the dorsum of female Dark Agouti rats, approximately seven weeks of age. To promote the formation of a cellular membrane lining the inside of each pouch, the pouches were maintained by re-inflating on days 2 and 5 after the initial injection of air. On re-inflation, the pouch was first deflated to ensure the needle was positioned correctly, before being re-inflated with 2 mL of sterile air. Using this protocol, the pouches remained inflated until use on day 7, when they were injected with 0.5 ml of either test compound or vehicle control. After 15 min, air pouches were injected with serum-treated zymozan (STZ—500 μg). Lavage of the air pouch (4×2 ml lavages) was performed at 4 h and leucocytes counted, after which the rats were killed, the air pouch excised and processed in formalin for histology. The sections were blinded to the person counting. Using a graticule with 100 squares and the 40× objective, the number of polymorphs (PMN) was counted in the pouch lining at 10 different and non-adjacent sites. Group sizes were 5-6 rats. Data were analysed for statistical significance within each experiment and using an unpaired t test. Compounds (1) and (3) were examined in this assay.

prostacyclin (PGI2) = test: 6-keto PGF1α (prostacyclin) synthesis in IL-1β stimulated HUVECs (RIA); assay type: cell-based, human; conditions: overnight, mean+SEM, n=3
Protocol: Cultured human umbilical vein endothelial cells (HUVECs—Vascular Biology Laboratory, Hanson Institute, Adelaide SA) were removed harvested in 0.25% trypsin-EDTA. After quenching and further washing in RPMI-10% FCS, the cells were resuspended in fresh medium at 1-1.5×10^5 cells per ml and plated out in gelatin coated wells at 2 ml per well. After incubation overnight in 5% CO2 at 37° C., the medium was refreshed and the cells returned to the incubator and allowed to equilibrate for approximately 2 h. Test compounds at concentrations of 0, 1, 10 or 100 μM were added to the cells, and 30 minutes later, stimulated by interleukin-1β (IL-1β-10 μl of a 2 ng/ml solution). After overnight incubation at 37° C., supernatants were collected by centrifugation at 2000 rpm for 5 min and stored at −20° C. Production of prostacyclin after overnight incubation was measured by radioimmunoassay (RIA). Because PGI2 is labile in aqueous medium, the stable hydrolysis product 6-keto PGF1α, was measured as a surrogate marker. Results are expressed as mean+SEM, n=3. Differences between means were analysed by one-way ANOVA followed by Tukey's test for multiple comparisons. Differences between means were regarded as significant when p<0.05.

HUVECs = test: Microscopic appearance of HUVECs; assay type: cell-based, human
Protocol: An effect on cell growth was observed microscopically at 100 μM but not at the lower doses. Normal HUVECs were predominantly epithelioid but included some spindle shaped cells. Cells were mainly healthy and viable, as indicated by their translucent appearance and adherence to the culture dish. Floating cells were presumed non-viable.

rabbit kidney (RK-13) = test: Toxicity in normal cells (MTT), RK-13; assay type: cell-based; conditions: Oryctolagus cuniculus, RK-13, 120 h, 5 days, top concentration 150 μM, read-out: Normal cell viability IC50
Protocol: Human neonatal fibroblast foreskin (NFF—a gift from Dr. Peter Parsons, Queensland Institute of Medical Research) or rabbit kidney (RK-13—a gift from Prof. Miller Whalley, Macquarie University) cells were seeded into 96 well plates and cultured in RPMI supplemented with 10% FCS (CSL, Australia), penicillin (100 U/ml), streptomycin ([…]), L-glutamine (2 mM) and sodium bicarbonate (1.2 g/L) at 37° C. and 5% CO2 for 24 hours until cells had attached and entered log phase of growth. Test compounds were added in serial two-fold dilutions from 150 μM in triplicate and incubated for a further 5 days. MTT was then added to each well, incubated for 3 hours at 37° C., after which the medium was tipped off. Following the addition of DMSO, the absorbance for each well was read on a plate reader. The assays were repeated at least twice.

[2] = treated rats compared with controls

Row | Compound | 20-COOH-LTB4, % of maximum release (5-lipoxygenase (5-LO); 0.1 μM) [%] | 20-OH-LTB4, % of maximum release (5-lipoxygenase (5-LO); 0.1 μM) [%] | LTB4, % of maximum release (5-lipoxygenase (5-LO); 0.1 μM) [%] | 20-COOH-LTB4, % of maximum release (5-lipoxygenase (5-LO); 1 μM) [%] | 20-OH-LTB4, % of maximum release (5-lipoxygenase (5-LO); 1 μM) [%] | LTB4, % of maximum release (5-lipoxygenase (5-LO); 1 μM) [%] | 20-COOH-LTB4, % of maximum release (5-lipoxygenase (5-LO); 10 μM) [%] | 20-OH-LTB4, % of maximum release (5-lipoxygenase (5-LO); 10 μM) [%] | LTB4, % of maximum release (5-lipoxygenase (5-LO); 10 μM) [%] | IC50 (5-lipoxygenase (5-LO)) [µM] | Cell viability (HCAECs) | Cells in lavage fluid (×10^−7) [1] | PMN in tissue sections (per 100 squares) [1] [per 100 squares] | PGF1α (prostacyclin (PGI2); 1 μM) [pg/mL] | PGF1α (prostacyclin (PGI2); 100 μM) [pg/mL] | Microscopic appearance of treated cells (HUVECs) | IC50 (rabbit kidney (RK-13)) [µM] | other results
1 | O=C(O)C1CCCN1Cc1cc2c(cc1O)OCC(c1ccc(O)cc1)=C2 (centres unmarked) [Compound (3)] | 114.9 | 82.8 | 93.6 | 105.7 | 99.0 | 97.0 | 145.2 | 6.1 | 0.0 | 5.4 | cell viability was unaffected | 1.73 ± 0.84 ×10^−7 | 35.85 ± 12.89 | 0.353 ± 0.045 | 0.308 ± 0.065 | appeared healthy | > 150 | PGF1α (pg/ml) (prostacyclin (PGI2); 10 μM): 0.335 ± 0.039^ pg/ml
2 | CN(C)Cc1cc2c(cc1O)OCC(c1ccc(O)cc1)=C2 [Compound (1)] | 82.0 | 95.2 | 94.3 | 99.6 | 77.7 | 78.1 | 0.0 | 0.0 | 0.0 | 4.3 | cell viability was unaffected | 0.43 ± 0.21^b ×10^−7 | 13.03 ± 7.10 | 0.667 ± 0.088 | 0.277 ± 0.07 | appeared healthy | > 150 | Number of extravasated PMN in the pouch wall, fold less than controls [1, 2]: more than 3 fold; Number of exudate cells in the pouch cavity, fold less than controls [1, 2]: more than 3 fold; PGF1α (prostacyclin (PGI2); 10 μM): 0.584 ± 0.059 pg/mL
